Patent US12251447B2, “Combined formulation comprising four linked cytotoxic T lymphocyte (CTL) epitopes and a PD-1 pathway inhibitor and methods of use thereof to treat cancer” (Taiho Pharmaceutical Co., Ltd., priority 2018, dated 2025)
Ends that are not written are not given here.

Assays:
Type in all cases: in vivo, mouse
[1] = Example 6: rate of change in body weight; settings: 18 days after cell transplantation vs Day 0
Protocol: (§1) Body weight was measured using an electronic balance for animals, and a rate of change in body weight (BWC) was calculated from the body weight measured on Day 0 (the day of grouping, BW0) and the body weight on 18 days after cell transplantation (BW) according to the following formula. Rate of change in body weight BWC (%)=(BW−BW0)/BW0×100
9-week-old B2 m^tm2(HLA-A24/H-2Db/B2M)Tai mice were randomly assigned to groups each involving 15 animals. The day of grouping was defined as Day 0.
This study was conducted in the same way as in Example 4 except that TPV07 or TPV08 was used instead of TPV06 as a peptide having 4 linked epitopes. TPV07 and TPV08, as in TPV06, were each prepared into 6 mg/mL using distilled water (Otsuka Pharmaceutical Factory Inc.) and then mixed with the equivalent amount of Montanide™ ISA 51 VG (SEPPIC) to prepare an emulsion, which was administered.

[2] = Example 4: rate of change in body weight; settings: body weight 18 days after cell transplantation vs Day 0
Protocol: 8-week-old B2m^tm2(HLA-A24/H-2Db/B2M)Tai mice were randomly assigned to groups each involving 15 animals. The day of grouping was defined as Day 0. A 6 mg/mL peptide solution was prepared by dissolving a peptide having 4 linked epitopes TPV06 in distilled water (Otsuka Pharmaceutical Factory Inc.), and filled into the B Braun Injekt syringe (B. Braun Melsungen AG). After the equivalent amount of Montanide™ ISA 51 VG (SEPPIC) was filled into another syringe, these syringes were connected to each other via a connector, and the peptide solution was thoroughly mixed with Montanide™ ISA 51 VG to prepare an emulsion. Also, an emulsion of distilled water mixed with the equivalent amount of Montanide™ ISA 51 VG was prepared as a vehicle control. Each of these emulsions was subcutaneously administered weekly in amounts of 100 μL each in the vicinity of base of tail of each B2m^tm2(HLA-A24/H-2Db/B2M)Tai mouse, and administrations were carried out three times in total (Days 0, 7, and 14). […]
Body weight was measured using an electronic balance for animals, and a rate of change in body weight (BWC) was calculated from the body weight measured on Day 0 (the day of grouping, BW0) and the body weight on 18 days after cell transplantation (BW) according to the following formula. […]

[3] = Example 5: rate of change in body weight; settings: 18 days after cell transplantation vs Day 0
Protocol: as §1
9-week-old B2m^tm2(HLA-A24/H-2Db/B2M)Tai mice were randomly assigned to groups each involving 15 animals. The day of grouping was defined as Day 0.
This study was conducted in the same way as in Example 4 except that an anti-mouse PD-L1 antibody was used instead of the anti-mouse PD-1 antibody. GoInVivo™ Purified anti-mouse CD274 (B7-H1, PD-L1) (Clone: 10F.9G2, BioLegend, Inc.) was prepared as an anti-mouse PD-L1 antibody (anti-mPD-L1 Ab) into 1 mg/mL using D-PBS (FUJIFILM Wako Pure Chemical Corp.) immediately before administration. One week after final administration of the emulsions (Day 21), the anti-mouse PD-L1 antibody was intraperitoneally administered at 200 μg/body.

Sequence: DYSARWNEIRRQIRPIFSNRRRVYDYNCHVDLRRASLDSDPWV [TPV07, PEP5-RR-PEP9-RR-PEP6-RR-PEP2]
- BWC (%) change in body weight [1]: 18.9%

Sequence: DYSARWNEIRRQIRPIFSNRRRVYDYNCHVDLRRILEQSGEWWK [TPV08, PEP5-RR-PEP9-RR-PEP6-RR-PEP10]
- BWC (%) change in body weight [1]: 21.7%

Sequence: DYSARWNEIRRQIRPIFSNRRRVYDYNCHVDLRRLLQAEAPRL [TPV06, PEP5-RR-PEP9-RR-PEP6-RR-PEP4]
- BWC (%) rate of change in body weight [2]: 27.0%
- BWC (%) change in body weight [3]: 21.9%
